Reference: patent publication US9227949B2, “Heteroarylcarboxylic acid ester derivative” (AJINOMOTO CO., INC., priority 2012, dated 2016)

Key:
Zucker Fatty rats = experiment: Evaluation of hypoglycemic action (blood glucose levels after oral gavage); assay type: in vivo; conditions: gavage 3 mg/kg, HCl salt form, 2 or 4 hours after dosing, free access to feed
Method: Zucker Fatty rats (male, 11-19 week-old, Charles River Japan, Inc.) known to spontaneously develop hyperglycemia were randomly assigned to the groups (6 per group). The animals were individually housed in a polycarbonate cage and allowed to drink water freely from a watering bottle. The animals in the compound groups were gavaged with compound No. 10, 87, 19, or 69 at the dose of 3 mg/kg. These compounds were used as HCl salt form thereof, converted by the method according to Example 3, step 6 from TFA salt form thereof upon the necessity. The animals in the control group were only treated with the vehicle (0.5% methylcellulose). Animals were allowed free access to the feed (CRF-1, Oriental Yeast Co., Ltd.) during the experiment. An aspirate of the blood (6 μL) was collected from the tail vein on the time point of immediately before dosing (time 0) as well as 2, 4, and 8 hours after dosing. The blood glucose levels were determined with ACCU-CHEK Aviva (Roche Diagnostics K.K.).

human trypsin [1] = molecular target: human trypsin (Homo sapiens, UniProt P07477); experiment: Measurement of trypsin inhibitory activity; assay type: biochemical; conditions: substrate Boc-Phe-Ser-Arg-AMC, Tris-HCl pH 8.0, Dixon plot
Method: (§1) Using a 96 well plate (#3915, Costar), a test compound (25 μL) was mixed with 20 μM fluorescence enzyme substrate (Boc-Phe-Ser-Arg-AMC, 50 μL) mixed with 200 mM Tris-HCl buffer (pH 8.0), and human trypsin (Sigma, 25 μL) was added. Using a fluorescence plate reader fmax (Molecular Devices, Inc.), the reaction rate was measured from the time-course changes at excitation wavelength 355 nm and fluorescence wavelength 460 nm. The Ki value was calculated from the concentration of the test compound, reciprocal of reaction rate, and Km value of the enzyme substrate, and by using Dixon plot.

[2] = molecular target: recombinant human enteropeptidase (Homo sapiens (Human), UniProt P98073); experiment: Measurement of enteropeptidase inhibitory activity; assay type: biochemical; conditions: substrate Gly-Asp-Asp-Asp-Asp-Lys-β-Naphtylamide, Tris-HCl pH 8.0, Dixon plot
Method: Using a 96 well plate (#3915, Costar), a test compound (25 μL), 400 mM Tris-HCl buffer (pH 8.0, 25 μL) and 0.5 mg/mL, fluorescence enzyme substrate (Gly-Asp-Asp-Asp-Asp-Lys-β-Naphtylamide, 25 μL) were mixed, and recombinant human enteropeptidase (R&D Systems, Inc., 25 μL) was added. Using a fluorescence plate reader fmax (Molecular Devices, Inc.), the reaction rate was measured from the time-course changes at excitation wavelength 320 nm and fluorescence wavelength 405 nm. The Ki value was calculated from the concentration of the test compound, reciprocal of reaction rate, and Km value of the enzyme substrate, and by using Dixon plot.

human trypsin [3] = experiment: Measurement of trypsin inhibitory activity; assay type: biochemical; conditions: substrate Boc-Phe-Ser-Arg-AMC, Tris-HCl pH 8.0, Dixon plot
Method: as §1

Chain of recombinant human enteropeptidase (P98073 whole entry): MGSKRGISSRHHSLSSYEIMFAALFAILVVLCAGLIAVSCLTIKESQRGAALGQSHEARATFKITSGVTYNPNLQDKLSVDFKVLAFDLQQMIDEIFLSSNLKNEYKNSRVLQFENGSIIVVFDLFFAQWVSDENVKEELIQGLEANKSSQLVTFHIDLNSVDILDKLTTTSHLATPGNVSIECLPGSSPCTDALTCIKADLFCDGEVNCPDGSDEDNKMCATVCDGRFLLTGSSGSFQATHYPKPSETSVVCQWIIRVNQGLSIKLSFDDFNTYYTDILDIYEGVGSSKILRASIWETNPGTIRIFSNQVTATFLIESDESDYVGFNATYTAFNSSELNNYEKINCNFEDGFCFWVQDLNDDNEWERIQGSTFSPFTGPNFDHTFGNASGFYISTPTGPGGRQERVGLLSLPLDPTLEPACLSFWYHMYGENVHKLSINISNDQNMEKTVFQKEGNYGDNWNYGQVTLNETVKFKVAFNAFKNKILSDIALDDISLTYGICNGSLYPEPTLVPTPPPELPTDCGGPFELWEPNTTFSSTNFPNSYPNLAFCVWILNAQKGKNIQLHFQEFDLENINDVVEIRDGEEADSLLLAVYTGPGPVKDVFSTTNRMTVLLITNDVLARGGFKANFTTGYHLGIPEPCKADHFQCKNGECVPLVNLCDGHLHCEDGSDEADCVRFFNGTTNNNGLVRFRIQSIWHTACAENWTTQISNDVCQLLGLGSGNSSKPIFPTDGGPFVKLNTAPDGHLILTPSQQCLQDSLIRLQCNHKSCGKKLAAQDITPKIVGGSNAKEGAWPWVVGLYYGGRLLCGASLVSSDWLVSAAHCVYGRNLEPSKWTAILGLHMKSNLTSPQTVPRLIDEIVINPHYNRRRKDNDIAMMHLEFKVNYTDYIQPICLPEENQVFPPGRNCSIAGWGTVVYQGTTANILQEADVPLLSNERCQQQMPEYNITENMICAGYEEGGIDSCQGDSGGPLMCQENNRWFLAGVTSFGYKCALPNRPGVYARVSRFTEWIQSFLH

Structure (SMILES) | Ki (human trypsin [1]) [nM] | Ki [2] [nM] | Ki (human trypsin [3]) [nM] | blood glucose levels compared with vehicle group (Zucker Fatty rats)
CCCN(CC(=O)O)C(=O)C(C)(C)Cc1ccc(C(=O)Oc2ccc(C(=N)N)cc2F)s1.Cl [Compound 10, N-{3-[5-(4-amidino-2-fluorophenoxycarbonyl)thiophen-2-yl]-2,2-dimethylpropionyl}-N-propylglycine hydrochloride] | – | – | – | significantly decreased
CCC(CC)(Cc1ccc(C(=O)Oc2ccc(C(=N)N)cc2F)s1)C(=O)N[C@@H](CC(=O)O)C(=O)O.Cl [Compound 19] | – | – | – | significantly decreased
CC(C)(Cc1ccc(C(=O)Oc2ccc(C(=N)N)cc2F)s1)C(=O)N[C@@H](C(=O)O)c1ccc(O)cc1.O=C(O)C(F)(F)F [Compound 69] | – | – | – | significantly decreased
CC(C)(Cc1ccc(C(=O)Oc2ccc(C(=N)N)cc2F)s1)C(=O)Nc1cc(O)cc(C(=O)O)c1 [Compound 74] | 0.18 | 0.58 | – | –
CCC(CC)(Cc1ccc(C(=O)Oc2ccc(C(=N)N)cc2F)s1)C(=O)Nc1ccc(O)c(C(=O)O)c1 [Compound 82] | 5.32 | 3.52 | – | –
CCC(CC)(Cc1ccc(C(=O)Oc2ccc(C(=N)N)cc2F)s1)C(=O)NCC(=O)O [Compound 83] | – | 0.72 | 1.42 | –
CCC(CC)(Cc1ccc(C(=O)Oc2ccc(C(=N)N)cc2F)s1)C(=O)N[C@@H](CCC(=O)O)c1nnn[nH]1 [Compound 84] | – | 0.43 | 3.27 | –
CCC(CC)(Cc1ccc(C(=O)Oc2ccc(C(=N)N)cc2F)s1)C(=O)N[C@@H](Cc1nn[nH]n1)C(=O)O [Compound 86] | 3.4 | 0.24 | – | –
CC(C)(Cc1ccc(C(=O)Oc2ccc(C(=N)N)cc2F)s1)C(=O)O.O=C(O)C(F)(F)F [Compound 87] | 1.3 | 0.39 | – | significantly decreased
CCC(CC)(Cc1ccc(C(=O)Oc2ccc(C(=N)N)cc2F)s1)C(=O)Nc1cccc(S(=O)(=O)O)c1 [Compound 89] | – | 0.84 | 1.17 | –
CCC(CC)(Cc1ccc(C(=O)Oc2ccc(C(=N)N)cc2F)s1)C(=O)Nc1ccc(C(=O)O)c(C(=O)O)c1 [Compound 90] | 1.7 | 0.55 | – | –
CC(C)(Cc1ccc(C(=O)Oc2ccc(C(=N)N)cc2F)s1)C(=O)N[C@H](C(=O)O)c1ccc(O)cc1 [Compound 92] | – | 0.67 | 0.96 | –

Further lines, with some results ahead:

Ki (human trypsin [1]) [nM] | Ki [2] [nM] | Ki (human trypsin [3]) [nM] | Structure (SMILES) | blood glucose levels compared with vehicle group (Zucker Fatty rats)
0.69 | 0.81 | – | CC(C)(Cc1ccc(C(=O)Oc2ccc(C(=N)N)cc2F)s1)C(=O)N[C@H]1CCC[C@@H](C(=O)O)C1 [Compound 85] | –
2.87 | 1 | – | CCC(CC)(Cc1ccc(C(=O)Oc2ccc(C(=N)N)cc2F)s1)C(=O)N1CC(C(=O)O)C1 [Compound 88] | –
1.33 | 0.9 | – | CC(C)(Cc1ccc(C(=O)Oc2ccc(C(=N)N)cc2F)s1)C(=O)N1CC[C@H](C(=O)O)C1 [Compound 91] | –
– | 0.3 | 0.9 | CC(C)(Cc1ccc(C(=O)Oc2ccc(C(=N)N)cc2F)s1)C(=O)N1C[C@H](O)C[C@H]1C(=O)O [Compound 93] | –
– | 1.3 | 1.98 | CC(C)(Cc1ccc(C(=O)Oc2ccc(C(=N)N)cc2F)s1)C(=O)N[C@H]1CC=CC[C@H]1C(=O)O [Compound 94] | –
